Experiment: log P, partitioning between octanol and water
Assay type: physicochemical
Settings: octanol/water at 25° C.; usually determined with hexafluorophosphate as counterion
Description: To the skilled person, log P is a well known coefficient for describing the partitioning of a compound between octanol and water at ambient temperature (25° C.). Whereby P is the concentration of the bleach catalyst in octanol divided by the concentration of bleach catalyst in water. (Leo et al. Chem Rev 1971, 71, 525). The log P is usually determined in the presence of hexafluorophophate as the counterion.

Compound | log P
CN1CCN(C)CCN(C)CC1.CN1CCN(C)CCN(C)CC1.F[P-](F)(F)(F)(F)F.F[P-](F)(F)(F)(F)F.[Mn+4].[Mn+4].[O-2].[O-2].[O-2] [Catalyst 1, Dimanganese-tris-μ-oxo-bis(1,4,7-trimethyl-1,4,7-triazacyclononane) bis(Hexafluorophosphate)] | less than 3
Dimanganese-tris-μ-oxo-bis(2-octyl-1,4,7-trimethyl-1,4,7-triazacyclononane) bis(Hexasulphate) [Catalyst 2] | more than 3

Source: patent publication US6479447B2, “Bleaching composition for dry cleaning containing transition metal bleach catalyst” (Unilever Home & Personal Care USA, division of Conopco, Inc., priority 1999, dated 2002)
